Columns and labels:
Type in all cases: in vivo
[1] = test system: redroot pigweed (Amaranthus retroflexus, AMARE); test: Pre-emerge test, greenhouse herbicide activity screening; details: for Pre-emerge Herbicidal Activity AMARE: phytotoxicity rating 0-100, 14 days after application; for phytotoxicity rating AMARE: pre-emerge, 14 days after application, scale 0-100
In short: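 Rating: 0–100 visual injury, 14 DAA. Application: acetone, 187 l/ha, 15–1000 g ai/ha, flat-fan track sprayer with nozzle 40–45 cm above soil or canopy. Post-emerge runs used 0.25% v/v surfactant on 2–3 leaf plants.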

[2] = test system: barnyardgrass (Echinochloa crus-galli, ECHCG); test: as above; details: for Pre-emerge Herbicidal Activity ECHCG: phytotoxicity rating 0-100, 14 days after application; for phytotoxicity rating ECHCG: pre-emerge, 14 days after application, scale 0-100
In short: (§1)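 Applied at 15–1000 g ai/ha from acetone in 187 l/ha spray volume. Post-emergence applications included 0.25% v/v non-ionic surfactant and reached plants sown 8–21 days before. Pre-emergence applications were incorporated by surface watering. Efficacy or crop damage was rated on a 0–100 scale after 14 days.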

[3] = test system: common ragweed (Ambrosia artemisizfolia L., AMBEL); test: as above; details: for Pre-emerge Herbicidal Activity AMBEL: phytotoxicity rating 0-100, 14 days after application; for phytotoxicity rating AMBEL: pre-emerge, 14 days after application, scale 0-100
In short: as §1

[4] = test system: green foxtail (Setaria viridis, SETVI); test: as above; details: for Pre-emerge Herbicidal Activity SETVI: phytotoxicity rating 0-100, 14 days after application; for phytotoxicity rating SETVI: pre-emerge, 14 days after application, scale 0-100
In short: as §1

[5] = test system: ivyleaf morningglory (Ipomoea hederacea, IPOHE); test: as above; details: for Pre-emerge Herbicidal Activity IPOHE: phytotoxicity rating 0-100, 14 days after application; for phytotoxicity rating IPOHE: pre-emerge, 14 days after application, scale 0-100
In short: as §1

[6] = test system: johnsongrass (Sorghum halepense, SORHA); test: as above; details: for Pre-emerge Herbicidal Activity SORHA: phytotoxicity rating 0-100, 14 days after application; for phytotoxicity rating SORHA: pre-emerge, 14 days after application, scale 0-100
In short: as §1

[7] = test system: lambsquarters (Chenopodium album, CHEAL); test: as above; details: for Pre-emerge Herbicidal Activity CHEAL: phytotoxicity rating 0-100, 14 days after application; for phytotoxicity rating CHEAL: pre-emerge, 14 days after application, scale 0-100
In short: as §1

[8] = test system: large crabgrass (Digitaria sanguinalis, DIGSA); test: as above; details: for Pre-emerge Herbicidal Activity DIGSA: phytotoxicity rating 0-100, 14 days after application; for phytotoxicity rating DIGSA: pre-emerge, 14 days after application, scale 0-100
In short: as §1

[9] = test system: sicklepod (Cassia obtusifolia, CASOB); test: as above; details: for Pre-emerge Herbicidal Activity CASOB: phytotoxicity rating 0-100, 14 days after application; for phytotoxicity rating CASOB: pre-emerge, 14 days after application, scale 0-100
In short: as §1

[10] = test system: velvetleaf (Abutilon theophrasti, ABUTH); test: as above; details: for Pre-emerge Herbicidal Activity ABUTH: phytotoxicity rating 0-100, 14 days after application; for phytotoxicity rating ABUTH: pre-emerge, 14 days after application, scale 0-100
In short: as §1

[11] = test system: field corn (Zea mays L., var. Dekalb 535, CORN); test: Pre-emerge test, crop safety; details: for Pre-emerge Herbicidal Activity CORN: crop damage rating 0-100, 14 days after application; for phytotoxicity rating CORN (crop damage): pre-emerge, 14 days after application, scale 0-100
In short: (§2)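 Herbicidal damage is scored 0 (none) to 100 (complete plant death) two weeks after a simulated field spray. Rates span 15–1000 g ai/ha, delivered in acetone at 187 l/ha. For post-emergence treatments, plants have 2–3 leaves and the spray carries 0.25% v/v non-ionic surfactant.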

[12] = test system: upland rice (Oryza sp., var. Tebonnet, RICE); test: Pre-emerge test, crop safety; details: for Pre-emerge Herbicidal Activity RICE: crop damage rating 0-100, 14 days after application; for phytotoxicity rating RICE (crop damage): pre-emerge, 14 days after application, scale 0-100
In short: as §2

[13] = test system: barnyardgrass (Echinochloa crus-galli, ECHCG); test: Post-emerge test, greenhouse herbicide activity screening; details: post-emerge, 14 days after application, rating scale 0-100
In short: as §2

[14] = test system: green foxtail (Setaria viridis, SETVI); test: as above; details: post-emerge, 14 days after application, rating scale 0-100
In short: as §2

[15] = test system: ivyleaf morningglory (Ipomoea hederacea, IPOHE); test: as above; details: post-emerge, 14 days after application, rating scale 0-100
In short: as §2

[16] = test system: johnsongrass (Sorghum halepense, SORHA); test: as above; details: post-emerge, 14 days after application, rating scale 0-100
In short: as §2

[17] = test system: lambsquarters (Chenopodium album, CHEAL); test: as above; details: post-emerge, 14 days after application, rating scale 0-100
In short: as §2

[18] = test system: large crabgrass (Digitaria sanguinalis, DIGSA); test: as above; details: post-emerge, 14 days after application, rating scale 0-100
In short: as §2

[19] = test system: redroot pigweed (Amaranthus retroflexus, AMARE); test: as above; details: post-emerge, 14 days after application
In short: as §2

[20] = test system: sicklepod (Cassia obtusifolia, CASOB); test: as above; details: post-emerge, 14 days after application, rating scale 0-100
In short: as §2

[21] = test system: velvetleaf (Abutilon theophrasti, ABUTH); test: as above; details: post-emerge, 14 days after application, rating scale 0-100
In short: as §2

[22] = test system: field corn (Zea mays L., var. Dekalb 535, CORN); test: Post-emerge test, crop safety; details: post-emerge, 14 days after application, rating scale 0-100
In short: as §1

[23] = test system: upland rice (Oryza sp., var. Tebonnet, RICE); test: Post-emerge test, crop safety; details: post-emerge, 14 days after application, rating scale 0-100
In short: as §1

[24] = 250 g ai/ha, rating scale 0-100

Cn1c(C(F)(F)F)cc(=O)n(-c2ccc(Cl)cc2NC(=O)OCc2ccccc2F)c1=O [4-49]
Pre-emerge Herbicidal Activity AMARE ([1]; 63 g ai/ha): 100
Pre-emerge Herbicidal Activity AMARE ([1]; 250 g ai/ha): 100
Pre-emerge Herbicidal Activity ECHCG ([2]; 63 g ai/ha): 10
Pre-emerge Herbicidal Activity ECHCG ([2]; 250 g ai/ha): 75
Pre-emerge Herbicidal Activity AMBEL ([3]; 63 g ai/ha): 80
Pre-emerge Herbicidal Activity AMBEL ([3]; 250 g ai/ha): 60
Pre-emerge Herbicidal Activity SETVI ([4]; 63 g ai/ha): 70
Pre-emerge Herbicidal Activity SETVI ([4]; 250 g ai/ha): 100
Pre-emerge Herbicidal Activity IPOHE ([5]; 63 g ai/ha): 40
Pre-emerge Herbicidal Activity IPOHE ([5]; 250 g ai/ha): 100
Pre-emerge Herbicidal Activity SORHA ([6]; 63 g ai/ha): 50
Pre-emerge Herbicidal Activity SORHA ([6]; 250 g ai/ha): 90
Pre-emerge Herbicidal Activity CHEAL ([7]; 63 g ai/ha): 100
Pre-emerge Herbicidal Activity CHEAL ([7]; 250 g ai/ha): 100
Pre-emerge Herbicidal Activity DIGSA ([8]; 63 g ai/ha): 70
Pre-emerge Herbicidal Activity DIGSA ([8]; 250 g ai/ha): 100
Pre-emerge Herbicidal Activity CASOB ([9]; 63 g ai/ha): 30
Pre-emerge Herbicidal Activity CASOB ([9]; 250 g ai/ha): 60
Pre-emerge Herbicidal Activity ABUTH ([10]; 63 g ai/ha): 95
Pre-emerge Herbicidal Activity ABUTH ([10]; 250 g ai/ha): 100
Pre-emerge Herbicidal Activity CORN ([11]; 63 g ai/ha): 0
Pre-emerge Herbicidal Activity CORN ([11]; 250 g ai/ha): 15
Pre-emerge Herbicidal Activity RICE ([12]; 63 g ai/ha): 30
Pre-emerge Herbicidal Activity RICE ([12]; 250 g ai/ha): 25
phytotoxicity rating ECHCG ([13]; 63 g ai/ha): 10
phytotoxicity rating ECHCG ([13]; 250 g ai/ha): 10
phytotoxicity rating SETVI ([14]; 63 g ai/ha): 30
phytotoxicity rating SETVI ([14]; 250 g ai/ha): 30
phytotoxicity rating IPOHE ([15]; 63 g ai/ha): 80
phytotoxicity rating IPOHE ([15]; 250 g ai/ha): 100
phytotoxicity rating SORHA ([16]; 63 g ai/ha): 0
phytotoxicity rating SORHA ([16]; 250 g ai/ha): 10
phytotoxicity rating CHEAL ([17]; 63 g ai/ha): 100
phytotoxicity rating CHEAL ([17]; 250 g ai/ha): 100
phytotoxicity rating DIGSA ([18]; 63 g ai/ha): 10
phytotoxicity rating DIGSA ([18]; 250 g ai/ha): 10
phytotoxicity rating AMARE ([19]; 63 g ai/ha, rating scale 0-100 (0 no damage, 100 complete death)): 100
phytotoxicity rating AMARE [19, 24]: 100
phytotoxicity rating CASOB ([20]; 63 g ai/ha): 80
phytotoxicity rating CASOB ([20]; 250 g ai/ha): 100
phytotoxicity rating ABUTH ([21]; 63 g ai/ha): 100
phytotoxicity rating ABUTH ([21]; 250 g ai/ha): 100
phytotoxicity rating CORN (crop damage) ([22]; 63 g ai/ha): 20
phytotoxicity rating CORN (crop damage) ([22]; 250 g ai/ha): 80
phytotoxicity rating RICE (crop damage) ([23]; 63 g ai/ha): 10
phytotoxicity rating RICE (crop damage) ([23]; 250 g ai/ha): 70

Cn1c(C(F)(F)F)cc(=O)n(-c2ccc(C(F)(F)F)cc2NC(=O)c2ccc3ccccc3c2)c1=O [2-149]
phytotoxicity rating AMARE ([1]; 63 g ai/ha): 100
phytotoxicity rating AMARE ([1]; 250 g ai/ha): 100
phytotoxicity rating ECHCG ([2]; 63 g ai/ha): 50
phytotoxicity rating ECHCG ([2]; 250 g ai/ha): 100
phytotoxicity rating AMBEL ([3]; 63 g ai/ha): 0
phytotoxicity rating AMBEL ([3]; 250 g ai/ha): 100
phytotoxicity rating SETVI ([4]; 63 g ai/ha): 50
phytotoxicity rating SETVI ([4]; 250 g ai/ha): 90
phytotoxicity rating IPOHE ([5]; 63 g ai/ha): 30
phytotoxicity rating IPOHE ([5]; 250 g ai/ha): 70
phytotoxicity rating SORHA ([6]; 63 g ai/ha): 30
phytotoxicity rating SORHA ([6]; 250 g ai/ha): 50
phytotoxicity rating CHEAL ([7]; 63 g ai/ha): 100
phytotoxicity rating CHEAL ([7]; 250 g ai/ha): 100
phytotoxicity rating DIGSA ([8]; 63 g ai/ha): 90
phytotoxicity rating DIGSA ([8]; 250 g ai/ha): 100
phytotoxicity rating CASOB ([9]; 63 g ai/ha): 0
phytotoxicity rating CASOB ([9]; 250 g ai/ha): 50
phytotoxicity rating ABUTH ([10]; 63 g ai/ha): 99
phytotoxicity rating ABUTH ([10]; 250 g ai/ha): 100
phytotoxicity rating CORN (crop damage) ([11]; 63 g ai/ha): 0
phytotoxicity rating CORN (crop damage) ([11]; 250 g ai/ha): 20
phytotoxicity rating RICE (crop damage) ([12]; 63 g ai/ha): 0
phytotoxicity rating RICE (crop damage) ([12]; 250 g ai/ha): 50
ECHCG phytotoxicity rating ([13]; 63 g ai/ha): 20
ECHCG phytotoxicity rating ([13]; 250 g ai/ha): 50
SETVI phytotoxicity rating ([14]; 63 g ai/ha): 10
SETVI phytotoxicity rating ([14]; 250 g ai/ha): 20
IPOHE phytotoxicity rating ([15]; 63 g ai/ha): 70
IPOHE phytotoxicity rating ([15]; 250 g ai/ha): 95
SORHA phytotoxicity rating ([16]; 63 g ai/ha): 0
SORHA phytotoxicity rating ([16]; 250 g ai/ha): 0
CHEAL phytotoxicity rating ([17]; 63 g ai/ha): 90
CHEAL phytotoxicity rating ([17]; 250 g ai/ha): 95
DIGSA phytotoxicity rating ([18]; 63 g ai/ha): 0
DIGSA phytotoxicity rating ([18]; 250 g ai/ha): 20
AMARE phytotoxicity rating ([19]; 63 g ai/ha, rating scale 0-100): 80
AMARE phytotoxicity rating [19, 24]: 80
CASOB phytotoxicity rating ([20]; 63 g ai/ha): 95
CASOB phytotoxicity rating ([20]; 250 g ai/ha): 95
ABUTH phytotoxicity rating ([21]; 63 g ai/ha): 100
ABUTH phytotoxicity rating ([21]; 250 g ai/ha): 100
CORN phytotoxicity rating (crop damage) ([22]; 63 g ai/ha): 0
CORN phytotoxicity rating (crop damage) ([22]; 250 g ai/ha): 15
RICE phytotoxicity rating (crop damage) ([23]; 63 g ai/ha): 0
RICE phytotoxicity rating (crop damage) ([23]; 250 g ai/ha): 10

From patent publication US6355799B1, “Substituted benzene compounds, process for their preparation, and herbicidal and defoliant compositions containing them” (ISK Americas Incorporated, priority 1997, dated 2002)
